Measurements taken from ChEMBL document CHEMBL1649359, “Izumiphenazines A-C: isolation and structure elucidation of phenazine derivatives from Streptomyces sp. IFM 11204” (2010).

What was measured:
Type in all cases: functional
AGS [1] = experiment: Induction of apoptosis in TRAIL-resistant human AGS cells assessed as decrease in cell viability at 40 uM after 24 hrs by fluorometric microculture cytotoxic assay in presence of TRAIL relative to in absence of TRAIL
AGS [2] = experiment: Induction of apoptosis in TRAIL-resistant human AGS cells assessed as decrease in cell viability at 20 uM after 24 hrs by fluorometric microculture cytotoxic assay in presence of TRAIL relative to in absence of TRAIL
AGS [3] = experiment: Induction of apoptosis in TRAIL-resistant human AGS cells assessed as decrease in cell viability at 30 uM after 24 hrs by fluorometric microculture cytotoxic assay in presence of TRAIL relative to in absence of TRAIL

## O=C(O)c1cc2c(c3nc4c(O)cccc4nc13)[C@@H]1Cc3nc4cccc(O)c4nc3[C@@H](O)[C@@H]1O2 [IZUMIPHENAZINE A]
AGS [1]
  Activity: 78%

## CN(c1ccc(C(=O)O)cc1)c1cccc2nc3c(O)cccc3nc12 [IZUMIPHENAZINE C]
AGS [2]
  Activity: 26%

## O=C1C[C@H](c2c(O)cc(C(=O)O)c3nc4cccc(O)c4nc23)Cc2nc3cccc(O)c3nc21 [IZUMIPHENAZINE B]
AGS [3]
  Activity: 30%
